Legend:
[1] = test system: aldosterone production in rats; test: Inhibition of Aldosterone Synthase in Rats (rat sodium-deficiency diet model); type: in vivo; conditions: for % Inhibition 3 hrs / % Inhibition 6 hrs: inhibition of aldosterone vs vehicle; for % Inhibition 3 hrs / Aldosterone (pg/mL) 3 hrs: 3 hrs post oral dose; for % Inhibition 3 hrs / % Inhibition 6 hrs / Aldosterone (pg/mL) 3 hrs / Aldosterone (pg/mL) 6 hrs: Example 1 10.0 mg/kg, Example 49 30.0 mg/kg, Fadrozole 1.0 mg/kg; for % Inhibition 6 hrs / Aldosterone (pg/mL) 6 hrs: 6 hrs post oral dose; for effect on aldosterone production in vivo (in words) / Aldosterone (pg/mL) 3 hrs / Aldosterone (pg/mL) 6 hrs: rat Na-deficient diet model; for effect on aldosterone production in vivo (in words): summary of Table 18; for Aldosterone (pg/mL) 3 hrs / Aldosterone (pg/mL) 6 hrs: serum
Method: The effect of compounds on aldosterone production in rats is assessed using the rat sodium-deficiency diet model. […] At 3 hours post dose rats are bled (˜0.5 mL) from the ocular orbit under isoflurane anesthesia. At 6 hours post-dose the rats are euthanized with CO2 and bled by cardiac puncture. Blood samples are clotted at least 30 minutes and serum is prepared and stored at approximately −80° C. until assayed. Aldosterone, steroids, and compound exposure are analyzed by mass spectroscopy.

[2] = test system: estradiol production from H295R cells; test: cells; type: cell-based, human; conditions: for inhibition of estradiol production (in words) / IC50: H295R cells; for IC50: Homo sapiens, NCI-H295R, 48 hours incubation, read-out: Estradiol IC50; for Selectivity ratio for aldosterone compared with estradiol: estradiol IC50 (H295R) relative to aldosterone IC50 (hcyp11B2)
Method: (§1) The human adrenocarcinoma cell line H295R is used to monitor the production of testosterone and estradiol in vitro. […] Various concentrations of test compounds in 1:3 dilution increments are added to the cell culture medium. After incubation for 48 hours, 100 μl culture medium is collected and d5-estradiol and d3-testosterone are added as ISs for estradiol and testosterone respectively.
(§2) An equal volume of sodium carbonate/sodium bicarbonate buffer (0.5 mol/L, pH 9.4) is added to the samples followed by freshly prepared dansyl chloride solution (50 μl, 20 mg/mL). Samples are mixed and incubated for 60 min at 60° C. The samples are then extracted 3× with EtOAc ([…]) using the FX, combining the organic layers in a new deep-well 96-well plate. The solvent is then dried in a GeneVac HT-4 or under nitrogen. The FX is used to reconstitute the samples in 50% MeOH/water ([…]) and the plates are heat-sealed.
(§3) A 40 μl aliquot of the sample is injected and a gradient from 20-100% MeOH in 0.95 min is initiated. An ABI QTRAP 4000 tandem mass spectrometer is used for MS/MS analysis in the positive ion mode. […] These peaks are separately integrated to give the peak areas. The area ratios of testosterone/IS and estradiol/IS are used to determine testosterone and estradiol concentrations by comparison to their respective standard curves. The detection limits for testosterone and estradiol are 0.1 ng/mL and 0.01 ng/mL respectively.

[3] = test system: testosterone production from H295R cells; test: cells; type: cell-based, human; conditions: for inhibition of testosterone production (in words) / IC50: H295R cells; for IC50: Homo sapiens, NCI-H295R, 48 hours incubation, read-out: Testosterone IC50; for Selectivity ratio for aldosterone compared with testosterone: testosterone IC50 (H295R) relative to aldosterone IC50 (hcyp11B2)
Method: as §1, §2, §3

[4] = biological target: T1, cynomolgus monkey cyp11B2 (Macaca fascicularis, UniProt A0A2K5UPL9); test: Cynomolgus Monkey Aldosterone Inhibition Assay; type: cell-based; conditions: V79 cells expressing cynomolgus monkey cyp11B2; n=1; read-out: relative IC50, cynomolgus monkey aldosterone inhibition assay
T1 construct: expressed in transfected cells; host or cells: Chinese hamster fibroblast V79 cells
T1 sequence (A0A2K5UPL9 1-503): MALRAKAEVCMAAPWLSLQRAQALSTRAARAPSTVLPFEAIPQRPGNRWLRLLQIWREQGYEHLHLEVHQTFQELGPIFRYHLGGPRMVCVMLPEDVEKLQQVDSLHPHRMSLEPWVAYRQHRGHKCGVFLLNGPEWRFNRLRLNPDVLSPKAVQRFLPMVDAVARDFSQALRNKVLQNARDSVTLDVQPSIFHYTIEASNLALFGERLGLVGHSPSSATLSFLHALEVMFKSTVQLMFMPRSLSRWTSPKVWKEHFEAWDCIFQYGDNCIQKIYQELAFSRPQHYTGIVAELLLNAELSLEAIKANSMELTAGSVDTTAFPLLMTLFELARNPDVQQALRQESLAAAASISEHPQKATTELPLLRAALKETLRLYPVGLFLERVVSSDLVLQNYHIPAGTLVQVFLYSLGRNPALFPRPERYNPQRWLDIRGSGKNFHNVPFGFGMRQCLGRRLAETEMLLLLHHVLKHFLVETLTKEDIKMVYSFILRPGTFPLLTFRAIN
Method: Chinese hamster fibroblast cells (V79) constitutively expressing cynomolgus monkey cyp11B2 is established by transfection with a mammalian expression vector harboring the cynomolgus monkey cyp11B2 cDNA. This cell line was used to measure the activity of compounds in inhibiting […] from cynomolgus monkey enzyme. Cell culture condition and aldosterone detection method is performed following the same protocol described in the “Aldosterone inhibition assay”.

[5] = biological target: cynomolgus monkey cyp11B1 (Macaca fascicularis, UniProt A0A2K5ULY1); test: Cynomolgus Monkey Cortisol Inhibition Assay; type: cell-based; conditions: V79 cells expressing cynomolgus monkey cyp11B1; n=1; read-out: relative IC50, cynomolgus monkey cortisol inhibition assay
Method: Chinese hamster fibroblast cells (V79) constitutively expressing cynomolgus monkey cyp11B1 is established by transfection with a mammalian expression vector harboring the cynomolgus monkey cyp11B1 cDNA. This cell line was used to measure the activity of compounds in inhibiting […] from cynomolgus monkey enzyme. Cell culture condition and cortisol detection method is performed following the same protocol described in the “cortisol inhibition assay”.

Sequence of cynomolgus monkey cyp11B1 (A0A2K5ULY1 entry or part of it): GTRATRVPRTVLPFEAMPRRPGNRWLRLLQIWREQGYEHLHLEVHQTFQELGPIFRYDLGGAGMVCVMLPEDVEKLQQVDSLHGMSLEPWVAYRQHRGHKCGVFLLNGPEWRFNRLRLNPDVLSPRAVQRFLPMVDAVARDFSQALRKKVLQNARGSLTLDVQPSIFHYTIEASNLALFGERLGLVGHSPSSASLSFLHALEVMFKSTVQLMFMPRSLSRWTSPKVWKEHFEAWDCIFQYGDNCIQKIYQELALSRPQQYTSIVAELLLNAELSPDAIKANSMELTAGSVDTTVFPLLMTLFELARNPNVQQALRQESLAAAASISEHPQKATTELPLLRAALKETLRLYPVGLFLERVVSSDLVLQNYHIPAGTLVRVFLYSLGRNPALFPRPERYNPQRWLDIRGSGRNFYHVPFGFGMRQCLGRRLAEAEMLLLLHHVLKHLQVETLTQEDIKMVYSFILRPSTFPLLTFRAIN

Compound	% Inhibition 3 hrs [1]	% Inhibition 6 hrs [1]	effect on aldosterone production in vivo (in words) [1]	Aldosterone (pg/mL) 3 hrs [1]	Aldosterone (pg/mL) 6 hrs [1]	inhibition of estradiol production (in words) [2]	IC50 [2]	Selectivity ratio for aldosterone compared with estradiol [2]	inhibition of testosterone production (in words) [3]	IC50 [3]	Selectivity ratio for aldosterone compared with testosterone [3]	IC50 [4]	IC50 [5]
CC1(C)CC(c2ccc(C#N)cc2F)c2cn[nH]c21 (single isomer, unassigned; isomer 1) [Example 49, 4-(6,6-Dimethyl-4,5-dihydro-1H-cyclopenta[c]pyrazol-4-yl)-3-fluoro-benzonitrile, isomer 1]	46%	33%	inhibit aldosterone production in vivo	1008 pg/mL	1704 pg/mL	weak inhibition	22000 nM	3143	weak inhibition	> 30000 nM	>4285	4.1 nM	579 nM
CC1(C)C[C@H](c2ccc(C#N)cc2)c2cn[nH]c21 (single isomer, unassigned) [Example 1]	48%	46%	inhibit aldosterone production in vivo	973 pg/mL	1380 pg/mL	weak inhibition	13200 nM	2640	weak inhibition	> 30000 nM	>6000	2.46 nM	209 nM

From patent publication US8778984B2, “Aldosterone synthase inhibitor” (Eli Lilly and Company, priority 2011, dated 2014)
